This passage reports inhibition, EC50 and IC50 results from ChEMBL document CHEMBL1140269, “Amino-substituted heterocycles as isosteres of trans-cinnamides: design and synthesis of heterocyclic biaryl sulfides as potent antagonists of LFA-1/ICAM-1 binding” (Bioorg Med Chem Lett, 2005).

By inhibition is commonly meant the share of the control response that was lost under treatment. Low values mean little suppression, high ones strong suppression. What is called EC50 is the concentration giving half of the maximal effect. Low values mean greater potency, high ones weaker potency. In general, IC50 refers to the concentration needed to halve the response being measured. The low end stands for greater potency, the high end for weaker potency.

Several values for one entry are separate records, joined by “and”; a condition that tells them apart may be missing. Equal entries are not always repeated.

The target in one assay is T1, Intercellular adhesion molecule (ICAM-1), Integrin alpha-L/beta-2 (Homo sapiens) (UniProt P20701+P05362+P05107). As to the kind of experiment: Inhibitory activity against ICAM-1/integrin LFA-1 binding complex at 1 uM concentration. Format: protein-complex assay.
`CC(C)c1ccccc1Sc1ccc(-c2ccnc(N3CCN(C)CC3)c2)cc1C(F)(F)F` registered an inhibition of 58%.

As for `CC(C)c1ccccc1Sc1ccc(-c2ccnc(N3CCCC(C)(C)C3)c2)cc1C(F)(F)F`, the inhibition came out at 22%.

The compound `CC(C)c1ccccc1Sc1ccc(-c2ccnc(N3CCN(C4CCCCC4)CC3)c2)cc1C(F)(F)F` came in with an inhibition of 21%.

With `Cc1ccc(C)c(N2CCN(c3cc(-c4ccc(Sc5ccccc5C(C)C)c(C(F)(F)F)c4)ccn3)CC2)c1`, the inhibition was 0%.

`CC(C)c1ccccc1Sc1ccc(-c2ccnc(N3CCN(c4ccccn4)CC3)c2)cc1C(F)(F)F` came in with an inhibition of 40%.

`CCCC1CCN(c2cc(-c3ccc(Sc4ccccc4C(C)C)c(C(F)(F)F)c3)ccn2)CC1` gave an inhibition of 8%.

Turning to `CC(C)c1ccccc1Sc1ccc(-c2ccnc(N3CCCCCC3)c2)cc1C(F)(F)F`, the inhibition turned out to be 34%.

Compound `CC1CCN(c2cc(-c3ccc(Sc4ccccc4C(C)C)c(C(F)(F)F)c3)ccn2)CC1` returned an inhibition of 40%.

With `CCN1CCN(c2cc(-c3ccc(Sc4ccccc4C(C)C)c(C(F)(F)F)c3)ccn2)CC1`, the inhibition was 54%.

For the compound `CC(C)c1ccccc1Sc1ccc(-c2ccnc(N3CCN(c4cnccn4)CC3)c2)cc1C(F)(F)F`, the inhibition is 82%.

A further assay has as its target T1, Intercellular adhesion molecule (ICAM-1), Integrin alpha-L/beta-2 (Homo sapiens). As to the kind of experiment: Inhibitory activity against ICAM-1/integrin LFA-1 binding complex at 20 uM concentration. Type of assay: protein-complex assay.
`CC(C)c1ccccc1Sc1ccc(-c2csc(N3CCCCC3)n2)cc1C(F)(F)F` displayed an inhibition of 40%.

A further assay deals with T2, Intercellular adhesion molecule (ICAM-1), Integrin alpha-L/beta-2 (Homo sapiens, UniProt P05107+P20701). The assay can be described thus: Effective concentration to measure the adherence of LFA-1 expressing JY8 cells to immobilized ICAM-1 in cell-based adhesion assay.
T2 sequence (P20701 whole entry): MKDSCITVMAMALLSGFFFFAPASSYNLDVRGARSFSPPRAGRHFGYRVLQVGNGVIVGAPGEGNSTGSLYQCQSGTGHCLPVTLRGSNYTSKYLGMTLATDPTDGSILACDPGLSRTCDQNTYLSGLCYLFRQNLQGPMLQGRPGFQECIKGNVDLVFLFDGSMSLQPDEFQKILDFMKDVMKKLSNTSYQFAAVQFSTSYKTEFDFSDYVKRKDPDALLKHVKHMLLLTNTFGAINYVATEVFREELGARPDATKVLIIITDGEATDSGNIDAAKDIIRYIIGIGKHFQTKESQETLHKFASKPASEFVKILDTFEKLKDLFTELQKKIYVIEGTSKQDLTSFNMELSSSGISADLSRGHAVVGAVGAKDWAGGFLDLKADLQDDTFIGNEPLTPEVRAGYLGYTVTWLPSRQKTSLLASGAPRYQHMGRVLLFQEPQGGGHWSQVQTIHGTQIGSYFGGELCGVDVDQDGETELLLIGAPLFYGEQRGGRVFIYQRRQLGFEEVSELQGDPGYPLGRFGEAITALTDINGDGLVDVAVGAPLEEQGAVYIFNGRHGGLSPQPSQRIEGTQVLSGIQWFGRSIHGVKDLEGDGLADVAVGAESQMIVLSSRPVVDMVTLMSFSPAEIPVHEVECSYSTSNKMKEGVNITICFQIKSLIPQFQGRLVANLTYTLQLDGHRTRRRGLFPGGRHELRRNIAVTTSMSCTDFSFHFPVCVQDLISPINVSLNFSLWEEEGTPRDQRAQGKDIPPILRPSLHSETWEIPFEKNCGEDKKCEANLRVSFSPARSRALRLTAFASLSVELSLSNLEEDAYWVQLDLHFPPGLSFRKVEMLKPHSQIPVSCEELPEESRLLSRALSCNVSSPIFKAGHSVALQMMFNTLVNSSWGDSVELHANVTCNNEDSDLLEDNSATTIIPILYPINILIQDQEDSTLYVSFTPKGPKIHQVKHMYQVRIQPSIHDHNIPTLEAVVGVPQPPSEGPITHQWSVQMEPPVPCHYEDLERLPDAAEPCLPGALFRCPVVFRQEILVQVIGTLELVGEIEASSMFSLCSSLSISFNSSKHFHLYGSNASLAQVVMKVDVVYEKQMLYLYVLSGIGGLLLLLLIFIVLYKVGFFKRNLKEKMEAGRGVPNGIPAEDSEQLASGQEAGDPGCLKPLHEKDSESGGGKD
T2 sequence (P05362 whole entry, further chain): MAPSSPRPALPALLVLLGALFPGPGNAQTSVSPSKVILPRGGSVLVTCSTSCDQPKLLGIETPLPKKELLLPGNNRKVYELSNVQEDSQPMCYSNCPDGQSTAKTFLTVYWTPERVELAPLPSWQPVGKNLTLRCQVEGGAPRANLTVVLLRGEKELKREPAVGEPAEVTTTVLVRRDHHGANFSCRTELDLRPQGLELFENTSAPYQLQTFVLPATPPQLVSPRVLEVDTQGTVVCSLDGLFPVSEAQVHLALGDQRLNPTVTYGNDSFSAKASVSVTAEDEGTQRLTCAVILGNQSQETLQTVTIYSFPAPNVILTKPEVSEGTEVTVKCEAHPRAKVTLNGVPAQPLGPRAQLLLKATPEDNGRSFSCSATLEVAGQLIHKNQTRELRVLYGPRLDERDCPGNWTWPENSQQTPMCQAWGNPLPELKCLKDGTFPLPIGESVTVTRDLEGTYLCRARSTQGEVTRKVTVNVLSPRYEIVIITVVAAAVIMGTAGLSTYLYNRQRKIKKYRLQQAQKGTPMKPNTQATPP
T2 sequence (P05107 whole entry): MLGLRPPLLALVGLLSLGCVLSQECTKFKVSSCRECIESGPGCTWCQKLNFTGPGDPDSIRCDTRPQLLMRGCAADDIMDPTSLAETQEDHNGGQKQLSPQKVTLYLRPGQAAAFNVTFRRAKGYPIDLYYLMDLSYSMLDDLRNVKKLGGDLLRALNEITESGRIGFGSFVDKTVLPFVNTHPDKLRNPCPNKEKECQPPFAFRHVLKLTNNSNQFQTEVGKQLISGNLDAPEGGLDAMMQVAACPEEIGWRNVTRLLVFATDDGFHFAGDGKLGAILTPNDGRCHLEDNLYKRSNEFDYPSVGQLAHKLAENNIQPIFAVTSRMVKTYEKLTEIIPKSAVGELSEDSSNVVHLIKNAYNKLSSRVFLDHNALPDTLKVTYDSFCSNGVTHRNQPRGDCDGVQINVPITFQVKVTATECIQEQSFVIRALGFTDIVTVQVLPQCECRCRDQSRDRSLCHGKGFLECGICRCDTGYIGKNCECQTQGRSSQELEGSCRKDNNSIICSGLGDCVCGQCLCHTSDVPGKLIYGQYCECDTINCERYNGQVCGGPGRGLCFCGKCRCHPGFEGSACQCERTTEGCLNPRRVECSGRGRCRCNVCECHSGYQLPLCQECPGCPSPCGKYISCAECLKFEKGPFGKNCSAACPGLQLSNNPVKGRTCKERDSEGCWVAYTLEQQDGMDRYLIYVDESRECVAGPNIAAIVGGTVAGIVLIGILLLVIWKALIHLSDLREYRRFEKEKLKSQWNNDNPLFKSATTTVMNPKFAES
`CC(C)c1ccccc1Sc1ccc(-c2cc(N3CCCC(C(=O)O)C3)ncn2)cc1C(F)(F)F` (centres undefined) returned an EC50 of 0.09 µM.

In the case of `CC(C)c1ccccc1Sc1ccc(-c2cc(N3CCCC(c4nn[nH]n4)C3)ncn2)cc1C(F)(F)F` (centres undefined), a half-maximal response (EC50) required 0.02 µM.

For a further assay, the target named is T2, Intercellular adhesion molecule (ICAM-1), Integrin alpha-L/beta-2. The assay can be described thus: Inhibitory concentration against integrin LFA-1/ICAM-1 binding complex. Type of assay: protein-complex assay.
`CC(C)c1ccccc1Sc1ccc(-c2cc(N3CCCC(C(=O)O)C3)ncn2)cc1C(F)(F)F` (centres undefined): the IC50 came out at 0.12 µM.

Consider `COc1ccccc1Sc1ccc(-c2ccnc(N3CC[C@@H](O)C3)c2)cc1C(F)(F)F`, for which the IC50 came out at 0.077 µM. Against the preceding compound, the IC50 is about 1.6-fold lower.

Consider `CC(=O)N1CCN(c2cc(-c3ccc(Sc4ccccc4C(C)C)c(C(F)(F)F)c3)ccn2)CC1`, for which the IC50 is 0.093 µM and 0.06 µM.

Take `COc1ccccc1Sc1ccc(-c2ccnc(N3CC[C@@H](N(C)C(C)=O)C3)c2)cc1C(F)(F)F`: the IC50 stood at 0.088 µM.

Consider `CC(=O)N1CCN(c2cc(-c3ccc(Sc4ccccc4C(C)C)c(C(F)(F)F)c3)ncn2)CC1`, for which the IC50 was 0.06 µM and 0.2 µM.

`CC(C)c1ccccc1Sc1ccc(-c2cc(N3CCC(NC(=O)OC(C)(C)C)C3)ncn2)cc1C(F)(F)F` (centres undefined): the IC50 was found to be 0.55 µM.

For `CCOC(=O)N1CCN(c2cc(-c3ccc(Sc4ccccc4C(C)C)c(C(F)(F)F)c3)ncn2)CC1`, the IC50 amounted to 0.47 µM.

For `CC(C)c1ccccc1Sc1ccc(-c2ccnc(N3CCC[C@H]3C(=O)O)c2)cc1C(F)(F)F`, the IC50 worked out at 0.026 µM.

`O[C@@H]1CCN(c2cc(-c3ccc(Sc4ccc5c(c4)OCCO5)c(C(F)(F)F)c3)ccn2)C1` showed a half-inhibitory concentration (IC50) of 0.126 µM.

As to `CC(C)c1ccccc1Sc1ccc(-c2csc(NCCN3CCOCC3)n2)cc1C(F)(F)F`, the IC50 came to 12 µM.

On to `CC(C)c1ccccc1Sc1ccc(-c2ccnc(N3CCC(CCO)CC3)c2)cc1C(F)(F)F`, for which the concentration for half-maximal inhibition (IC50) amounted to 0.16 µM.

In turn, `CC(=O)N[C@@H]1CCN(c2cc(-c3ccc(Sc4ccc5c(c4)OCCO5)c(C(F)(F)F)c3)ccn2)C1` came in with a 50% inhibitory concentration (IC50) of 0.112 µM. This IC50 and that of the compound before are within 1.5-fold of each other.

As for `COCCCNc1nc(-c2ccc(Sc3ccccc3C(C)C)c(C(F)(F)F)c2)cs1`, the IC50 was 10.5 µM.

As for `CC(C)c1ccccc1Sc1ccc(-c2cc(N3CCN(c4ccccn4)CC3)ncn2)cc1C(F)(F)F`, the IC50 is 1.27 µM.

In turn, `CC(C)c1ccccc1Sc1ccc(-c2ccnc(N3CCC[C@H]3CO)c2)cc1C(F)(F)F` (stereo in doubt; 16x) came in with a 50% inhibitory concentration (IC50) of 0.264 µM.

In turn, `COc1ccccc1Sc1ccc(-c2ccnc(N3CCC[C@@H]3CO)c2)cc1C(F)(F)F` yielded an IC50 of 0.331 µM.

In turn, `CC(C)c1ccccc1Sc1ccc(-c2cc(N3CCCC(c4nn[nH]n4)C3)ncn2)cc1C(F)(F)F` (centres undefined) registered an IC50 of 0.051 µM. Against the preceding compound, the IC50 is about 6.5-fold lower.

The compound `CC(C)c1ccccc1Sc1ccc(-c2ccnc(N3CCC(O)C3)c2)cc1C(F)(F)F` (centres undefined) yielded a concentration for half-maximal inhibition (IC50) of 0.093 µM.

`CCOC(=O)CN1CCN(c2cc(-c3ccc(Sc4ccccc4C(C)C)c(C(F)(F)F)c3)ncn2)CC1` displayed a 50% inhibitory concentration (IC50) of 0.42 µM.

Regarding `CC(C)c1ccccc1Sc1ccc(-c2cc(N3CCCC(C(N)=O)C3)ncn2)cc1C(F)(F)F` (centres undefined), the IC50 was 0.34 µM.

Turning to `O=C(O)[C@@H]1C[C@@H](O)CN1c1cc(-c2ccc(Sc3ccc4c(c3)OCCO4)c(C(F)(F)F)c2)ccn1`, the IC50 was 0.192 µM. Compared with the last compound, the IC50 is about 1.8-fold lower.

`COc1ccccc1Sc1ccc(-c2ccnc(N3CCC(CO)CC3)c2)cc1C(F)(F)F` registered a half-maximal inhibitory concentration (IC50) of 0.08 µM.

As for `COc1ccccc1Sc1ccc(-c2ccnc(N3CCC(O)CC3)c2)cc1C(F)(F)F`, the IC50 amounted to 0.128 µM.

Consider `CC(C)c1ccccc1Sc1ccc(-c2ccnc(N3CCN(C=O)CC3)c2)cc1C(F)(F)F`, for which the IC50 came to 0.165 µM.

On to `O=C(O)C1CCN(c2cc(-c3ccc(Sc4ccc5c(c4)OCCO5)c(C(F)(F)F)c3)ccn2)CC1`, for which the 50% inhibitory concentration (IC50) is 0.071 µM and 0.05 µM.

`CC(C)c1ccccc1Sc1ccc(-c2cc(N3CCCC3CO)ncn2)cc1C(F)(F)F` (stereo in doubt; 10w) had an IC50 of 0.68 µM. This lies in the sub-micromolar range.
